Assay results: patent US20220233502A1, “COMPOSITION FOR PREVENTING OR TREATING ASTHMA, RHINITIS OR CONJUNCTIVITIS, COMPRISING N-ACYL AMINO ACID AS ACTIVE INGREDIENT” (STEMDR INC., priority 2019, published 2022)
Entries after “also recorded” stand apart in the source; their conditions may differ.

How the values were obtained:
Assay type in all cases: in vivo, BALB/c mice
[1] = system: asthma-induced mice (inflammatory cells in the airway); assay: Inflammatory cells in bronchoalveolar lavage fluid of asthma-induced mice; conditions: OVA asthma mice; for inflow of eosinophils into the airway / WBC, bronchoalveolar lavage fluid: 3.5 μmol/kg oral once a day for 7 days from day 25; for inflow of eosinophils into the airway: result in words; for WBC Differential Counting (%) EOS (eosinophils) / WBC Differential Counting (%) MAC (macrophages) / WBC Differential Counting (%) MONO (monocytes) / WBC Differential Counting (%) NEU (neutrophils) / WBC Differential Counting (k/uL) EOS (eosinophils) / WBC Differential Counting (k/uL) MAC (macrophages) / WBC Differential Counting (k/uL) MONO (monocytes) / WBC Differential Counting (k/uL) NEU (neutrophils) / WBC, bronchoalveolar lavage fluid: mean, N=8; for WBC Differential Counting (%) EOS (eosinophils) / WBC Differential Counting (%) MAC (macrophages) / WBC Differential Counting (%) MONO (monocytes) / WBC Differential Counting (%) NEU (neutrophils) / WBC Differential Counting (k/uL) EOS (eosinophils) / WBC Differential Counting (k/uL) MAC (macrophages) / WBC Differential Counting (k/uL) MONO (monocytes) / WBC Differential Counting (k/uL) NEU (neutrophils): BAL fluid, 3.5 μmol/kg oral once a day for 7 days
Description: Specific pathogen-free BALB/c mice (6-week-old, male) were purchased from Doul Biotech (Osan, Korea). Experiment was started when the mice were 7- to 10-week old. The mice were housed in a laminar flow cabinet and were given water and feed ad libitum. The mice were sensitized by intraperitoneally injecting 0.02 mg of ovalbumin (OVA) and alum (1 mg) (Sigma-Aldrich) as an immunologic adjuvant twice on days 0 and 14. For 4 days from day 28, the mice were placed in a plastic nebulizer container of a regular size and were made to inhale OVA in the form of an aerosol by spraying 5% OVA for 30 minutes (airway challenge). After anesthetizing the mouse and inserting a tube into the bronchus, the bronchus was washed with a buffer and cells were obtained therefrom. The cells were centrifuged, suspended at 1×10^4 cells/100 μL, and fixed by centrifuging with a cytospin. Then, the number of eosinophils, monocytes, neutrophils and macrophages were measured by staining with Diff-Quik. Neutrophils, macrophages, monocytes and eosinophils were observed as inflammatory cells in the airway. Each of N-acetyl-L-alanine, N-oleoyl-L-alanine, N-acetyl-L-tryptophan and N-oleoyl-L-tryptophan was dissolved in 10 mL of phosphate-buffered saline to 3.5 μmol/kg and was orally administered for 7 days from day 25, once a day.

[2] = system: asthma-induced mice (lung tissue); assay: H&E staining of lung tissue, degree of inflammation; conditions: OVA asthma mice; oral administration for a week; vs OVA-challenged group; FIG. 1
Description: (§1) Specific pathogen-free BALB/c mice (6-week-old, male) were purchased from Doul Biotech (Osan, Korea). Experiment was started when the mice were 7- to 10-week old. The mice were housed in a laminar flow cabinet and were given water and feed ad libitum.
(§2) The mice were sensitized by intraperitoneally injecting 0.02 mg of ovalbumin (OVA) and alum (1 mg) (Sigma-Aldrich) as an immunologic adjuvant twice on days 0 and 14. For 4 days from day 28, the mice were placed in a plastic nebulizer container of a regular size and were made to inhale OVA in the form of an aerosol by spraying 5% OVA for 30 minutes (airway challenge).
(§3) For histological assay, tissues taken out from the lung were fixed with formalin and embedded in paraffin. The embedded tissue was sliced to 4-μm thickness and subjected to 1) hematoxylin and eosin (H&E) staining for investigation of the degree of inflammation and 2) Masson's trichrome staining for investigation of the degree of pulmonary fibrosis.
Lung tissue was stained with H&E after oral administration of the drug for a week.

[3] = system: asthma-induced mice (lung tissue); assay: Masson's trichrome staining of lung tissue, degree of fibrosis around the airway; conditions: OVA asthma mice; oral administration for a week; vs OVA-challenged group; FIG. 2
Description: as §1, §2, §3
Lung tissue was stained with Masson's trichrome after oral administration of the drug for a week.

[4] = system: IL-4; assay: Th2 cytokine IL-4 in bronchial wash (ELISA); conditions: OVA asthma mice; 3.5 μmol/kg oral once a day for 7 days from day 25; FIG. 3
Description: as §1, §2
(§4) The concentration of several cytokines (TNF-α, IL-4, IL-5, IL-13) in bronchial wash was measured using an ELISA kit (R&D Systems, Minneapolis, Minn., USA).
(§5) Th2 cytokines, IL-4, IL-5 and IL-13, are known to be involved in airway inflammation, bronchial hypersensitivity and IgE antibody production mediated by eosinophils. 3.5 μmol/kg N-acetyl-L-alanine, N-oleoyl-L-alanine, N-acetyl-L-tryptophan or N-oleoyl-L-tryptophan dissolved in 10 mL of phosphate-buffered saline was orally administered once a day, for 7 days from day 25 after the induction of asthma, and the cytokines were measured.

[5] = system: IL-5; assay: Th2 cytokine IL-5 in bronchial wash (ELISA); conditions: OVA asthma mice; 3.5 μmol/kg oral once a day for 7 days from day 25; FIG. 4
Description: as §1, §2, §4, §5

[6] = system: IL-13; assay: Th2 cytokine IL-13 in bronchial wash (ELISA); conditions: OVA asthma mice; 3.5 μmol/kg oral once a day for 7 days from day 25; FIG. 5
Description: as §1, §2, §4, §5

[7] = system: rhinitis-induced mice; assay: OVA-induced allergic rhinitis, nasal rubbing and sneezing; conditions: 10 μL of 10 μM intranasally; for number of nasal rubbing: counted for 15 minutes on day 27, FIG. 6A; for number of sneezing: counted for 15 minutes on day 27, FIG. 6B
Description: as §1
The mice were sensitized by intraperitoneally injecting 0.02 mg of ovalbumin (OVA) and alum (1 mg) (Sigma-Aldrich) as an immunologic adjuvant twice on days 0 and 14. For 7 days from day 21, the mice were topically stimulated by injecting 10 μL of a solution of 100 μg of OVA dissolved in 20 μL of phosphate-buffered saline into both nasal cavities, once a day. After the final injection of OVA (day 27), symptom score was recorded by summing the numbers of nasal rubbing and sneezing. The symptom score was recorded for 15 minutes, and the result was compared between the groups.
Ovalbumin (OVA) of Preparation Example 3 was used as an antigen to induce allergic rhinitis. After OVA challenging from day 21 to day 26, 10 μL of each of N-acetyl-L-alanine, N-oleoyl-L-alanine, N-acetyl-L-tryptophan and N-oleoyl-L-tryptophan dissolved in phosphate-buffered saline to 10 μM was intranasally administered 12 hours later. After the final injection of OVA (day 27), symptom score was recorded by summing the numbers of nasal rubbing and sneezing. The symptom score was recorded for 15 minutes, and the result was compared between the groups.

[8] = system: conjunctivitis-induced mice; assay: OVA-induced conjunctivitis, clinical grading of conjunctival edema and flare; conditions: 10 μL of 100 μM intraocularly 30 minutes and 12 hours after challenge, scale 0 to 4+, FIG. 7
Description: as §1
The mice were sensitized by intraperitoneally injecting 0.02 mg of ovalbumin (OVA) and alum (1.5 mg) (Sigma-Aldrich) as an immunologic adjuvant twice on days 0 and 7. For 12 days from day 14, conjunctivitis was induced by injecting 10 μL of a solution of 100 μg of OVA dissolved in 20 μL of phosphate-buffered saline into each eye, once a day.
24 hours after the final injection of OVA (day 25), the clinical grading of conjunctival edema and flare (redness) was assessed using a portable slit lamp (Carl Zeiss, Oberkochen, Germany). The assessment was performed in a blinded fashion 2 hours after OVA injection. Each clinical parameter was scored on a scale of 0 to 4+(0 absent, 1+minimal, 2+mild, 3+moderate, 4+severe) as described in Merayo-Lloves, J., Calonge, M, and Foster, C. S. 1995. Experimental model of allergic conjunctivitis to ragweed in guinea pig. Curr. Eye Res. 14: 487-494. A negative control group was given no treatment.
Ovalbumin of Preparation Example 4 was used as an antigen to induce conjunctivitis. After challenging 100 μg of ovalbumin into the eye from day 15 to 26, 10 μL of each of N-acetyl-L-alanine, N-oleoyl-L-alanine, N-acetyl-L-tryptophan and N-oleoyl-L-tryptophan dissolved in phosphate-buffered saline to 100 μM was intraocularly administered 30 minutes and 12 hours later. On day 26, the clinical grading of conjunctival edema and flare (redness) was assessed using a portable slit lamp (Carl Zeiss, Oberkochen, Germany).

| Structure (SMILES) | inflow of eosinophils into the airway [1] | WBC Differential Counting (%) EOS (eosinophils) [1] [%] | WBC Differential Counting (%) MAC (macrophages) [1] [%] | WBC Differential Counting (%) MONO (monocytes) [1] [%] | WBC Differential Counting (%) NEU (neutrophils) [1] [%] | WBC Differential Counting (k/uL) EOS (eosinophils) [1] [k/uL] | WBC Differential Counting (k/uL) MAC (macrophages) [1] [k/uL] | WBC Differential Counting (k/uL) MONO (monocytes) [1] [k/uL] | WBC Differential Counting (k/uL) NEU (neutrophils) [1] [k/uL] | WBC, bronchoalveolar lavage fluid [1] | inflammation around the airway, H&E staining of lung tissue [2] | fibrosis around the airway, Masson's trichrome staining of lung tissue [3] | IL-4 secretion in airway [4] | IL-5 secretion in airway [5] | IL-13 secretion in airway [6] | number of nasal rubbing [7] | number of sneezing [7] | clinical grade of conjunctivitis (conjunctival edema and flare) [8] |
| --- | --- | --- | --- | --- | --- | --- | --- | --- | --- | --- | --- | --- | --- | --- | --- | --- | --- | --- |
| CCCCCCCC/C=C\CCCCCCCC(=O)N[C@@H](Cc1c[nH]c2ccccc12)C(=O)O [NOT, N-oleoyl-L-tryptophan] | significantly inhibited | 17.0 | 74.3 | 3.6 | 5.1 | 0.07 | 0.32 | 0.01 | 0.02 | 0.43 ×10^2 cells/μL | remarkably inhibited inflammation | inhibited fibrosis | significantly inhibited | significantly inhibited | significantly inhibited | remarkably decreased | remarkably decreased | remarkably increased clinical grades |
| CC(=O)N[C@@H](Cc1c[nH]c2ccccc12)C(=O)O [NAT, N-acetyl-L-tryptophan] | significantly inhibited | 20.1 | 71.8 | 3.9 | 4.1 | 0.10 | 0.33 | 0.02 | 0.02 | 0.47 ×10^2 cells/μL | remarkably inhibited inflammation | inhibited fibrosis | significantly inhibited | significantly inhibited | significantly inhibited | remarkably decreased | remarkably decreased | remarkably increased clinical grades |
| CC(=O)N[C@@H](C)C(=O)O [NAA, N-acetyl-L-alanine] | significantly inhibited | 10.1 | 81.8 | 3.3 | 4.9 | 0.04 | 0.32 | 0.01 | 0.02 | 0.39 ×10^2 cells/μL | remarkably inhibited inflammation | inhibited fibrosis | significantly inhibited | significantly inhibited | significantly inhibited | remarkably decreased | remarkably decreased | remarkably increased clinical grades |
| CCCCCCCC/C=C\CCCCCCCC(=O)N[C@@H](C)C(=O)O [NOA, N-oleoyl-L-alanine] | significantly inhibited | 3.4 | 87.3 | 3.8 | 5.5 | 0.01 | 0.34 | 0.01 | 0.02 | 0.38 ×10^2 cells/μL | remarkably inhibited inflammation; also recorded: highest inhibition of inflammation | inhibited fibrosis; also recorded: highest inhibition | significantly inhibited | significantly inhibited | significantly inhibited | remarkably decreased | remarkably decreased | remarkably increased clinical grades |
